US20250115595A1, “INHIBITORS OF HYPOXIA-INDUCIBLE FACTORS” (The Johns Hopkins University, priority 2021, published 2025)
“Also recorded” adds a separate entry of the source.

Tests used:
[1] = system: Hepa1-6 mouse HCC cells; experiment: RT-qPCR of hypoxia-induced mRNAs in Hepa1-6 cells; assay type: cell-based
Method: Effects of 32-134D on Hepa1-6 mouse HCC cells and tumors. […] Thus, 32-134D inhibits the ability of hypoxic HCC cells to increase O2 delivery by stimulating angiogenesis (Angpt14, Pgf, Vegfa) or […] anaerobic metabolism by increasing glycolytic flux (Glut1, Pgk1, Ldha).
Human Hep3B and mouse Hepa1-6 cells were purchased from ATCC and grown in high-glucose (4.5 mg/ml) Dulbecco's modified Eagle's medium supplemented with 10% (vol/vol) fetal bovine serum and […] at 37° C. in a 5% CO2/95% air incubator (20% O2). Human cell line identity was authenticated by analysis of short tandem repeats, and all cell lines were maintained mycoplasma free, using PCR-based assays conducted at the Johns Hopkins University Genetic Resources Core Facility. Cells were subjected to hypoxia in a controlled atmosphere chamber (PLAS Labs) with ambient gas mixture containing 1% O2 and 5% CO2.
RNA was extracted using TRIzol Reagent (ThermoFisher). Quantitative Real-time PCR was conducted using SYBR Green PCR Master Mix (BioRad) and reactions were run using the BioRad thermal cycler (BioRad). The mRNA expression of target genes was normalized to the expression of 18S rRNA and the fold change (FC) was calculated based on the threshold cycle (Ct) as […]

[2] = system: HIF-1α and HIF-2α; experiment: Immunoblot of HIF-1α and HIF-2α accumulation in hypoxic MIO-M1 cells; assay type: cell-based, human; conditions: as little as 1 μM, 4 hours
Method: It has previously been reported that the cells in the inner nuclear layer of the retina that express VEGF in response to hypoxia/ischemia are Müller glial cells (X. Xin et al., Proc Natl Acad Sci USA 110, E3425-3434 (2013)). […] The effects of 32-134D on HIF-1α accumulation persisted up to 16 hours after treatment of cultured cells (FIG. 27B).
Cells culture and reagents: MIO-M1 cells were a gift from Dr. Astrid Limb (University College London, Institute of Ophthalmology, London, United Kingdom). MIO-M1 and HUVEC cells were cultured in DMEM with 10% (vol/vol) FBS (Quality Biological) and 1% penicillin/streptomycin (Cellgro). Hypoxia chambers were used to expose cells. Evans Blue (E2129) was purchased from Sigma-Aldrich.
Immunoblot assays and ELISAs: Cell, neurosensory retina, and D120 retinal organoid lysates were subjected to 4-15% gradient SDS/PAGE (Invitrogen). Immunoblot assays were performed as previously described (X. Xin et al., 2013, Proc Natl Acad Sci USA 110, E3425-3434).

[3] = system: OIR mice; experiment: OIR mouse model, intraperitoneal dosing; assay type: in vivo
Method: The ability of 32-143D to inhibit ischemia-induced retinal neovascularization was evaluated using the oxygen-induce retinopathy (OIR) model for retinal neovascularization in ischemic retinal diseases, such as retinopathy of prematurity, proliferative diabetic retinopathy, ischemic retinal vein occlusions, or sickle cell retinopathy. Postnatal day 7 (P7) newborn C57BL/6 pups were exposed to hyperoxia (75% O2) for 5 consecutive days before being returned to room air at P12. Beginning at P13, pups were treated with […] IP injections with 32-134D at 20 mg/kg or with vehicle control. 24 hours after the fifth IP injection, at P17, retinal flat mounts were stained with isolectin-B4 to examine the development of retinal neovascularization.
OIR mouse model: OIR experiments were performed as previously described (M. Rodrigues et al., 2013, Diabetes 62, 3863-3873). Briefly, C57BL/6 mice were placed in 75% O2 on P7. On P12, the mice were returned to room air and administered either by IP injection (digoxin and test compound) or by intravitreal injection. Mice with body weight less than 6 g at P17 were excluded from analysis. The data were collected from both males and females and the results combined, as there was no apparent difference between sexes. Representative images for selected time points from a minimum of three independent experiments are shown. Data from 3-8 pups were obtained at each time point.

[4] = system: STZ mice; experiment: STZ diabetic mouse model, intraocular dosing; assay type: in vivo; conditions: single intraocular injection 70 ng, 5 days
Method: The efficacy of 32-134D following intraocular administration with 70 ng, as well as a lower dose (14 ng), in OIR mice at P12 (J. Zhang et al., J Clin Invest 131 (2021)) was determined.
The efficacy of 32-134D following IVT administration was also evaluated in the STZ model. STZ mice that were hyperglycemic for 6 months were treated with a single intraocular injection with 70 ng 32-134D in 1 ul or with vehicle (DMSO) control. 5 days later vascular hyperpermeability was assessed by examining leakage of intravascular Evans blue dye in STZ mice.
Vascular permeability by Evans blue tracer method: Mice were anesthetized with a mixture of ketamine (50 mg/kg) and xylazine (5 mg/kg) and subjected to Evans blue (Sigma) (50 mg/kg) perfusion by penile vein injection. […] Images were captured by Zeiss fluorescent microscope or confocal microscopy and fluorescence quantified by image J software (NIH). […] Blinded quantification of the number of leaking vessels was performed by manual counting major leakage from capillaries from retinas of each group. Non-capillary artifactual Evans blue or FITC-dextran leakage due to flat mount processing as well as minor leakages were not included in the quantitation. […] Random fields were chosen from retinas where leakages were absent to determine baseline fluorescence that arise from capillaries. For quantification, high magnifications (20×) images were taken. […]

[5] = daily IP injections 20 mg/kg from P13, P17

Question: `Brc1ccc2c(-c3csc(-c4c[nH]c5c(Br)cccc45)n3)c[nH]c2c1` [Compound 32-134D, 4-(6-bromo-1H-indol-3-yl)-2-(7-bromo-1H-indol-3-yl)thiazole] was tested. Which “hypoxia induction of B7h4 and Tim3 mRNAs” value ([1]; Hepa1-6 cells, 5 μM) did it give?
Answer: hypoxia-induced in vehicle but not in 32-134D-treated cells

Question: And the “hypoxia induction of Pdl1 mRNA” value ([1]; Hepa1-6 cells, 5 μM)?
Answer: hypoxia-induced in vehicle-treated but not in 32-134D-treated cells

Question: What about the “hypoxia-induced expression of Glut1 and Ldha” value ([1]; Hepa1-6 cells, 5 μM) of the same molecule?
Answer: blocked

Question: And the “decreased Cxcl1, Il6 and Il10 mRNA levels” value ([1]; cultured Hepa1-6 cells)?
Answer: not in cultured Hepa1-6 cells exposed to 32-134D

Question: And the “hypoxia-induced IL22 mRNA expression” value ([1]; cultured Hepa1-6 cells)?
Answer: inhibited

Question: What about the “hypoxia-induced expression of mRNA encoding Angpt14, Pgf, Vegfa and Pgk1” value ([1]; hypoxic Hepa1-6 cells) of the same molecule?
Answer: significant dose-dependent inhibition

Question: What about the “HIF-1α and HIF-2α protein accumulation in response to hypoxia” value [2] of the same molecule?
Answer: decreased

Question: And the “area of avascular retina” value [3, 5]?
Answer: not significantly different

Question: And the retinal neovascularization [3, 5]?
Answer: significant decrease in neovascularization

Question: And the “mRNA expression of key HIF-regulated vasoactive mediators” value ([3]; five consecutive (P12-P16) IP injections, 20 mg/kg, P17)?
Answer: marked reduction

Question: What about the “HIF-1α and HIF-2α protein accumulation in retina” value ([3]; single IP injection, as little as 20 mg/kg, P13 and P14) of the same molecule?
Answer: reduction

Question: And the “vascular hyperpermeability (Evans blue leakage)” value [4]?
Answer: effectively inhibited; also recorded: significant decrease
